The source of these data is patent US20050148634A1, “1-N-Aminobenzimidazole derivatives” (ZERIA PHARMACEUTICAL CO., LTD, priority 2002, published 2005).

The test system of data set [1] is histamine-stimulated gastric acid secretion. The experiment in a line: Test 2 gastric acid secretion inhibitory effect, acute fistula method. It is filed as in vivo, Sprague-Dawley (SD) rats. To be noted: male SD rats, administered into the duodenum; total gastric acid secreted on 3rd-5th hours; Probit method. On the procedure: Test 2 (Gastric Acid Secretion Inhibitory Effect)
(1) As laboratory animals, seven-week old male Sprague-Dawley (SD) rats were purchased from CHARLES RIVER JAPAN, INC. Subsequent to preliminary rearing for 5 days or longer, they were used in an experiment.
Each test medicine was suspended or dissolved in a 0.5% carboxymethylcellulose sodium solution to prepare a volume of 2.5 mL/kg.
(2) Measurement of Gastric Acid Secretion
Using rats fasted for 18 hours, histamine-stimulated gastric acid secretion in an acute fistula method following the method reported by Hiramatsu et al. (Dig. Dis. Sci., 39, 689-697 (1994)) was measured. Described specifically, each rat was lightly anesthetized with diethyl ether. After that, a winged tube needle with 3.8% citric acid solution filled therein was caused to dwell in the caudal vein. Celiotomy was performed, and the pyloric part of the stomach was ligated. A small hole was then formed in the duodenum, and a feeding tube with physiological saline filled therein was caused to dwell there. After the interior of the stomach was washed with physiological saline, a polyethylene-made fistula tube (inner diameter: 4 mm) was fitted to the proventriculus part and an incised part of the proventriculus was ligated to hold the fistula tube in place. The stomach and duodenum were returned into the abdominal cavity. Celiotomy was performed with the fistula tube and feeding tube being left extending outside, and the rat was placed in a Ballman Cage Type II. Histamine was continuously injected through the winged needle allowed to dwell in the caudal vein (8 mg/kg/h, 1.38 mL/h). Fifteen minutes later, the gastric juice was sampled, and after that, the gastric juice was sampled at intervals of 1 hour. After the amount of each gastric juice sample was recorded, it was titrated with 0.1 mol/L NaOH to a final point of pH 7.0. From the volume required for the titration, the acidity was calculated. The quantity of the secreted gastric acid was determined from the product of the amount of the gastric juice and the acidity. Incidentally, the rats were divided into groups such that the total amount of the first gastric juice samples became equal in each group. Each test medicine was administered in a volume of 2.5 mL/kg into the duodenum through the feeding tube fitted beforehand in the duodenum. To a control group, 0.5% Na—CMC solution was administered.
(3) Analysis of the Results
From the results so obtained, data were presented in terms of average ±S.D. The sum of quantities of gastric acid secreted on the 3rd, 4th and 5th hours after the first sampling was recorded as a total quantity of secreted gastric acid. The percent inhibition in each group was calculated from the total quantity of secreted gastric acid in the control group and the total quantity of secreted gastric acid in the group. From the percent inhibition in each group, the 50% effective dose (ED50) was next calculated by the Probit method.

For a further data set, the target named is T1, H+/K+-ATPase (Sus scrofa, UniProt P19156).
T1 construct: An interface fraction obtained by the centrifugation was collected; from tissue; host or cells: swine stomach mucosal layer, membrane fraction from the sucrose interface
T1 sequence (P19156 2-1034 limits assumed): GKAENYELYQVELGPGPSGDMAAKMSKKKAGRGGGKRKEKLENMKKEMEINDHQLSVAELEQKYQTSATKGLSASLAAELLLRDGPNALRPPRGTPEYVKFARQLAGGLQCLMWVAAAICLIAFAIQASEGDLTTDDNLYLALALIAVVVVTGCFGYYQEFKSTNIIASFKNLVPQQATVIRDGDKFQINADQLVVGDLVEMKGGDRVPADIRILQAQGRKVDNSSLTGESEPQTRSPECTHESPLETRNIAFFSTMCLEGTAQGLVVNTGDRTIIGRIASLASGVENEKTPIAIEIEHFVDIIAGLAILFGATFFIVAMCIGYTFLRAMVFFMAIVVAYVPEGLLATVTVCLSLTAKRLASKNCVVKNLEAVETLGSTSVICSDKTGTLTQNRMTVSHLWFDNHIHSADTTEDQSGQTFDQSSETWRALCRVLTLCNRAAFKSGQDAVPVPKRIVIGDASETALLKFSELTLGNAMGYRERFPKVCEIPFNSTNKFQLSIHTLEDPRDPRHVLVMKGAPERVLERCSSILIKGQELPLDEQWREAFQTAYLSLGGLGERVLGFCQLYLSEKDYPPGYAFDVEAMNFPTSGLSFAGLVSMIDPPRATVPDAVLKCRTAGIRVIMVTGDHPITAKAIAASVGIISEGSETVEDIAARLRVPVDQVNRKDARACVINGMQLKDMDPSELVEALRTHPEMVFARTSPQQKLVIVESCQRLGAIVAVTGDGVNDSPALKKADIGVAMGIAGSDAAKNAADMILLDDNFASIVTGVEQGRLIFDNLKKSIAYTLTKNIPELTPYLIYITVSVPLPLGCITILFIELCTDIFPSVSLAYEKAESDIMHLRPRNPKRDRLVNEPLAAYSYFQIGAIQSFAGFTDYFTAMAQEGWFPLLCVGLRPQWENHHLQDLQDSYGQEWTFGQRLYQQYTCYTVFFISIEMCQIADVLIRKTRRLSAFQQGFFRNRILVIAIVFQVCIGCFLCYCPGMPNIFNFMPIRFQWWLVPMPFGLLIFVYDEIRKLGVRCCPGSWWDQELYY
T1 sequence (P18434 whole entry partner): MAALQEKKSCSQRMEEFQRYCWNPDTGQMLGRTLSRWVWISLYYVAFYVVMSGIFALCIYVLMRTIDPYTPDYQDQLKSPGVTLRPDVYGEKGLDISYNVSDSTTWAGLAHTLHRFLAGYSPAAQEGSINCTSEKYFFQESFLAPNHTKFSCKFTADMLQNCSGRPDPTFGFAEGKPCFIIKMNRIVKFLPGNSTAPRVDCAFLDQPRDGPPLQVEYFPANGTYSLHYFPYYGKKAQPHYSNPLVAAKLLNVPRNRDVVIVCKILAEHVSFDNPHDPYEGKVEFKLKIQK
The experiment in a line: Test 1 proton pump inhibitory effect: H+/K+-ATPase enzyme inhibiting activity at pH 1. The data set is classed as biochemical. To be noted: swine stomach enzyme sample; test compound pretreated in pH 1 hydrochloric acid solution with 50% DMSO for 15 minutes; ATP substrate. Here is the method: Test 1 (Proton Pump Inhibitory Effect)
(1) Preparation of H^+/K^+-ATPase Enzyme Sample
A swine stomach which had been stored frozen was separated into a muscularis and a mucosal layer. After the mucosal layer was disrupted with a mixer in 5 volumes of 20 mmol/L tris-HCl buffer containing 0.25 mol/L of sucrose and 1 mmol/L of EGTA (pH 7.4, hereafter abbreviated as “tris-HCl buffer”), centrifugation was conducted at 9,000×g for 30 minutes. The supernatant was gently overlaid on 20 mmol/L tris-HCl buffer containing 30% of sucrose and 1 mmol/L of EGTA (pH 7.4, 8 mL), followed by ultracentrifugation at 100,000×g for 60 minutes. An interface fraction obtained by the centrifugation was collected and subjected to centrifugation twice under 113,000×g for 60 minutes. The sediment was suspended with tris-HCl buffer, and the suspension was homogenized at low rotational speed to provide an enzyme sample. The enzyme sample was stored frozen at −80° C. Using the method reported by Smith et al. (Anal. Biochem., 150, 76-85 (1985)), the thus-obtained sample was quantitatively analyzed for its protein content with a BCA protein assay reagent. The above procedure was all conducted under water cooling.
(2) Discussion about H+/K^+-ATPase Enzyme Inhibiting Activity at pH 1
Following a method making use of a method for the quantitation of inorganic phosphorus as a degradation product (Biochem. Biophys. Res. Commun., 40, 880-886 (1970)), an assay of H^+/K^+-ATPase enzyme inhibiting activity was performed by using ATP as a substrate. As a hydrochloric acid solution for the pretreatment of each test compound, a 1×10^−1 mol/L (pH 1) solution of hydrochloric acid with 50% DMSO contained therein was used. Solutions of each test compound at various concentrations were added to aliquots of the hydrochloric acid solution such that the solutions were diluted 1,000-fold, and the thus-diluted solutions were left over at room temperature for 15 minutes. […] 840-μL Aliquots of an enzyme solution (5 μg proteins) diluted with the TE buffer were then added. After incubated at 37° C. for 30 minutes, 50-μL aliquots of 40 mmol/LATP solution (dissolved in the TE buffer free of KCl) were added to initiate an enzymatic reaction (total volume: 1 mL, final ATP concentration: 2 mmol/L). Subsequent to incubation at 37° C. for 30 minutes, 2-mL aliquots of ice-cold 12% trichloroacetic acid were added to terminate the enzymatic reaction. A molybdenum reagent (1 mL; 3.75% ammonium molybdate/1.5 mol/L sulfuric acid) and butyl acetate (5 mL) were added. After vigorous shaking and mixing for 5 minutes, the absorbance of a butyl acetate layer was measured at 310 nm. From absorbances obtained by dissolving KH2PO4 solutions of various concentrations in aliquots of an 8% TCA solution and performing a similar procedure, a standard curve was prepared to perform a conversion of each quantity of inorganic phosphorus. The assay was conducted in duplicate. From a difference between an average quantity of inorganic phosphorus in the case of the KCl-containing TE buffer and an average quantity of inorganic phosphorus in the case of the KCl-free TE buffer, a residual activity was determined. Supposing that the activity of the control value (DMSO) was 100%, the percent inhibition of the compound was calculated. As the inhibition potency of each test compound, an IC50 value was calculated and presented. The test compounds were al used by dissolving them in dimethyl sulfoxide immediately before their use.

Another data set has as its target T2, human CYP2C19 (Homo sapiens, UniProt P33261).
T2 construct: purchased Sumitomo Chemical Co., Ltd
The experiment in a line: Test 3 human CYP2C19 activity inhibition test (S-(+)-mephenyloin to 4'-hydroxymephenyloin). It is filed as in vitro ADME. To be noted: test compound 10 μM; microsomes from human CYP2C19 expression system; formed 4'-hydroxymephenyloin compared with control. Here is the method:
Test 3 (Human CPY2C19 Activity Inhibition Test)
CYP2C19 specifically induces the metabolic reaction of from S-(+)-mephenyloin into 4′-hydroxymephenyloin. Using the CYP2C19 expression system, the inhibitory effect of each test substance was investigated based on the amount (concentration) of formed 4′-hydroxymephenylion as an index of CYP2C19 activity.
a) Metabolic Activity Test
As a reaction mixture, a 125 μmol/L solution of S-(+)-mephenyloin in methanol (50 μL) and a 25 μmol/L solution of each test substance in methanol (0, 10, 100 or 200 μL) were added to 10-mL test tube made of glass, and the solvent was distilled off under a nitrogen gas stream (40° C.).
After incubated at 37° C. for 10 minutes, a 12% aqueous solution of perchloric acid (50 μL) was added to terminate the reaction.
Subsequent to the termination of the reaction, 10 μg/mL methyl p-hydroxybenzoate (50 μL) as an internal standard (I.S.) and diethyl ether (2 mL) were added. The resulting mixture was shaken for 10 minutes, and then centrifuged (3,000 rpm, 10 minutes). The organic layer was separately collected, and under a nitrogen gas stream (40° C.), the solvent was distilled off. The residue was dissolved in a mobile phase (200 μL), and an analysis was conducted by high performance liquid chromatography (HPLC).
Using a solution of 4′-hydroxymephenyloin in lieu of the S-(+)-mephenyloin solution, a calibration line was prepared following the above-described reaction method. Quantitation was conducted based on a peak area ratio of 4′-hydroxymephenyloin to the I.S. Comparing the formed amount of 4′-hydroxymephenyloin as a control with that of 4′-hydroxymephenyloin at the time of the existence of the test compound, the comparison result was used as an index of activity.
HPLC was conducted under the following HPLC conditions A or HPLC conditions B. […]

Structures can show the parent of a compound that is named as a salt.

T2 sequence (P33261 whole entry): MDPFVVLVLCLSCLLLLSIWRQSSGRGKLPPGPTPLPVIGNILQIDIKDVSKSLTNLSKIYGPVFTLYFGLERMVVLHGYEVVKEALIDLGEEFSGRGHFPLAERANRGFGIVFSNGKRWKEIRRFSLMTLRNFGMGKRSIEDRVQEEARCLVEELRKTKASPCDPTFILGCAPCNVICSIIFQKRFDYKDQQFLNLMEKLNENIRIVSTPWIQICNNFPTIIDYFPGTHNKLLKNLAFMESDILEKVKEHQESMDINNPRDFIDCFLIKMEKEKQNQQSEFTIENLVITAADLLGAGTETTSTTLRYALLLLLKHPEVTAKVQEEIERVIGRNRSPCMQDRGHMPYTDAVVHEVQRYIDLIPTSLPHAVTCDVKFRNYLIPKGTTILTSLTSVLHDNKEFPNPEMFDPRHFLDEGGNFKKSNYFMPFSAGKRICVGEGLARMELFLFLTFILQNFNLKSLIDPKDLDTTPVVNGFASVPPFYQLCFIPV

As to `Cc1c(OCC(F)(F)F)ccnc1C[S+]([O-])c1nc2ccccc2n1NCC(O)c1ccccc1` (mixture of isomers) [Example 51], the “Gastric acid secretion inhibitory effect ED50” value in data set [1] was 2.4 mg/kg. On H+/K+-ATPase, the IC50 is 3.32 µM. Take `COC(=O)CNn1c([S+]([O-])Cc2nccc(OCC(F)(F)F)c2C)nc2ccccc21` (racemic) [Example 47]: the IC50 at H+/K+-ATPase came out at 4.85 µM. In the case of `Cc1c(OCC(F)(F)F)ccnc1C[S+]([O-])c1nc2ccccc2n1NCc1ccccc1` (racemic) [Example 49], at H+/K+-ATPase, the IC50 came out at 1.03 µM.

Take `Cc1c(OCC(F)(F)F)ccnc1C[S+]([O-])c1nc2ccccc2n1NCCc1ccccc1` (racemic) [Example 50]: the IC50 on H+/K+-ATPase came out at 0.87 µM.

Take `Cc1c(OCC(F)(F)F)ccnc1C[S+]([O-])c1nc2ccccc2n1NCCCCCO` (racemic) [Example 54]: the IC50 at H+/K+-ATPase was found to be 3.88 µM. Still for that read-out and setting: the same measure for `C=CCNn1c([S+]([O-])Cc2nccc(OCC(F)(F)F)c2C)nc2ccccc21` (racemic) [Example 64]: 2.28 µM. Compound `Cc1c(OCC(F)(F)F)ccnc1C[S+]([O-])c1nc2ccccc2n1N` (single isomer, unassigned; (+)) (as salt: tartrate) [(+) isomer of Example 1, (+)-1-Amino-2-[[4-(2,2,2-trifluoroethoxy)-3-methylpyridin-2-yl]methylsulfinyl]benzimidazole] registered a melting point of 111 to 113 °C.

Compound `CBc1cc(C)nc(C[S+]([O-])c2nc3ccccc3n2N)c1` (stereo not shown) [Example 7] displayed a melting point of 130 to 133 °C. `Cc1c(OCC(F)(F)F)ccnc1C[S+]([O-])c1nc2cc(OC(F)F)ccc2n1N` (stereo not shown) [Example 68]: the melting point was in the range of 194 to 195 °C. The IC50 at H+/K+-ATPase is 3.2 µM. Compound `COc1ccc2nc([S+]([O-])Cc3ncc(C)c(OC)c3C)n(N)c2n1` (stereo not shown) [Example 78] returned a melting point of 174 to 175 °C. On human CYP2C19, the “CYP2C19 activity inhibition (%)” value stood at 62%.

The IC50 is the concentration that inhibits the measured activity by half. As a reminder, the melting point is the temperature of the solid-liquid transition.
